# Experimental data from the supplement of paper PMC10307832.
# What was measured:
# Assay in all cases: relative viability (nuclei count vs DMSO), 5 days (fraction); higher = more cells survive
# [1] = compound: CCN1CCN(c2ccc(Nc3cc(N(C)C(=O)Nc4c(Cl)c(OC)cc(OC)c4Cl)ncn3)cc2)CC1 [BGJ398] + N=C(N)NC(=N)NCCc1ccccc1 [Phenformin] (partner 250 µM)
# Summary of the method: (§1)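 Dosing by pin tool came one day after lung cancer cell lines were seeded in 1536-well plates, using either one drug or a fixed anchor-drug dose plus five library-drug doses (not always all listed) in √10 steps. After 5 days, nuclei were counted on 4× images. Relative viability is treated-well nuclei count divided by vehicle-well nuclei count, and values are medians of duplicate plates.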
# [2] = compound: C1=CC2=NC=CN=C2C=C1/C=C/3\C(=O)NC(=O)S3 + Cc1nc(Nc2ncc(C(=O)Nc3c(C)cccc3Cl)s2)cc(N2CCN(CCO)CC2)n1 [Dasatinib] (partner 0.075 µM)
# Summary of the method: as §1
# [3] = compound: CCN1CCN(c2ccc(Nc3cc(N(C)C(=O)Nc4c(Cl)c(OC)cc(OC)c4Cl)ncn3)cc2)CC1 [BGJ398] + COc1cc2c(Oc3ccc(NC(=O)C4(C(=O)Nc5ccc(F)cc5)CC4)cc3F)ccnc2cc1OCCCN1CCOCC1 [Foretinib] (partner 0.25 µM)
# Summary of the method: as §1
# [4] = compound: C1=CC2=NC=CN=C2C=C1/C=C/3\C(=O)NC(=O)S3 + Cc1nc(NC(=O)N2CCC[C@H]2C(N)=O)sc1-c1ccnc(C(C)(C)C(F)(F)F)c1 [Alpelisib] (partner 2 µM)
# Summary of the method: as §1
Cell Line,relative viability ([1]; first compound 0.01 µM),relative viability ([1]; first compound 0.03162 µM),relative viability ([1]; first compound 0.1 µM),relative viability ([1]; first compound 0.3162 µM),relative viability ([1]; first compound 1 µM),relative viability ([2]; first compound 0.02 µM),relative viability ([2]; first compound 0.06325 µM),relative viability ([2]; first compound 0.2 µM),relative viability ([2]; first compound 0.6325 µM),relative viability ([2]; first compound 2 µM),relative viability ([3]; first compound 0.01 µM),relative viability ([3]; first compound 0.03162 µM),relative viability ([3]; first compound 0.1 µM),relative viability ([3]; first compound 0.3162 µM),relative viability ([3]; first compound 1 µM),relative viability ([4]; first compound 0.02 µM),relative viability ([4]; first compound 0.06325 µM),relative viability ([4]; first compound 0.2 µM),relative viability ([4]; first compound 0.6325 µM),relative viability ([4]; first compound 2 µM)
NCI-H647,0.454,0.514,0.498,0.455,0.411,0.173,0.259,0.256,0.149,0.103,1.09,1.12,1.12,1.39,1.27,0.865,1.89,1.28,1.06,1.14
NCI-H650,0.419,0.442,0.512,0.458,0.391,0.524,0.468,0.561,0.415,0.286,0.983,1.06,1.06,1.04,0.928,1.08,1.04,1.06,1.1,1.02
NCI-H661,0.286,0.316,0.295,0.302,0.291,1.03,1.12,0.935,0.748,0.722,0.889,1.06,1.14,0.932,0.982,0.651,0.614,0.952,0.732,0.469
NCI-H727,0.668,0.521,0.635,0.568,0.516,0.488,0.362,0.355,0.378,0.24,1.12,0.773,0.822,0.848,0.927,0.647,0.571,0.556,0.653,0.346
NCI-H838,0.446,0.549,0.612,0.437,0.305,0.278,0.179,0.311,0.257,0.187,0.927,1.08,0.962,0.889,0.914,0.989,1.16,1,1.04,0.913
NCI-H1355,0.44,0.465,0.454,0.464,0.423,0.476,0.599,0.709,0.714,0.47,0.925,0.98,1.03,0.951,0.898,0.67,0.776,0.864,0.773,0.751
NCI-H1395,0.436,0.433,0.368,0.393,0.373,0.44,0.386,0.417,0.417,0.354,0.877,0.955,0.819,0.756,0.614,0.934,1.14,1.32,0.922,1.39
